{"source": "ChEMBL document CHEMBL1201862", "about": "“PubChem BioAssay data set” (2004)", "key": {"[1]": {"test": "inhibitors of intracellular T. cruzi replication, confirmation, NIH3T3 host cells, beta-gal luminescence (AID 2044);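 further: luminescent beta-galactosidase reporter signal from transgenic T. cruzi replicating inside host cells; inhibitors lower the luminescence signal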", "assay_type": "functional, cell-based"}, "[2]": {"test": "cytotoxicity toward NIH3T3 fibroblasts, dose response, counter-screen, cell-based, ATP luminescence, mouse fibroblasts (AID 2010);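 further: cells exposed to compound for about 90 hours before reading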", "assay_type": "functional"}, "Cytochrome P450 3A4": {"biological_target": "Cytochrome P450 3A4 (Homo sapiens, UniProt P08684)", "sequence (P08684 whole entry)": "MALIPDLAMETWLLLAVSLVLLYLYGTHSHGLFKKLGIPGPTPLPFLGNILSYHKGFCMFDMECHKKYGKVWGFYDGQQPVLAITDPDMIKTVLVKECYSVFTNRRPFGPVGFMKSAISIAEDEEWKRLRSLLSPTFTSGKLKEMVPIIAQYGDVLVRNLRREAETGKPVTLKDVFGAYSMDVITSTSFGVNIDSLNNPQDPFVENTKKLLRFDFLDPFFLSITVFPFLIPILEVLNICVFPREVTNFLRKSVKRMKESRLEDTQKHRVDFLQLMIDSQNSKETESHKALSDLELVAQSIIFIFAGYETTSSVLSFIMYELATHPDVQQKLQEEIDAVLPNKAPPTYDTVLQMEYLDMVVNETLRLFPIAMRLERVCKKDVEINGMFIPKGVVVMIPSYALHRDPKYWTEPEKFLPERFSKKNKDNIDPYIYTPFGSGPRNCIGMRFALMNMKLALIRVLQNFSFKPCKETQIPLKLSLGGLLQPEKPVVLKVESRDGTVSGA"}, "Cytochrome P450 1A2": {"biological_target": "T1, Cytochrome P450 1A2 (Homo sapiens, UniProt P05177)", "T1 sequence (P05177 whole entry)": "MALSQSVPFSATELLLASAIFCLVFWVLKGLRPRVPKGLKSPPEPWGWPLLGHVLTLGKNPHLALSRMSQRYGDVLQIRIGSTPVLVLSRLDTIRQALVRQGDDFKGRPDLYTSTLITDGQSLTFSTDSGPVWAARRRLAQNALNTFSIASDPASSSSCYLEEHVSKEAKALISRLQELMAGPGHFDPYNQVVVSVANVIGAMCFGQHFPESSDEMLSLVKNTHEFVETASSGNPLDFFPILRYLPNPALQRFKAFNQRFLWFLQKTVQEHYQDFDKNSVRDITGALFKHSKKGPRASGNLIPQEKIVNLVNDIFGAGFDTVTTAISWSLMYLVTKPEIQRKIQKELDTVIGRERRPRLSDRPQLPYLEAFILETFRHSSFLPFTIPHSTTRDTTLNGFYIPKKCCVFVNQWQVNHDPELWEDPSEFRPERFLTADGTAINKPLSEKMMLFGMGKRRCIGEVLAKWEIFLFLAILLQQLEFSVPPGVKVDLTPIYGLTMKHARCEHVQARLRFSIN"}, "Cytochrome P450 2C9": {"biological_target": "Cytochrome P450 2C9 (Homo sapiens, UniProt P11712)", "sequence (P11712 whole entry)": "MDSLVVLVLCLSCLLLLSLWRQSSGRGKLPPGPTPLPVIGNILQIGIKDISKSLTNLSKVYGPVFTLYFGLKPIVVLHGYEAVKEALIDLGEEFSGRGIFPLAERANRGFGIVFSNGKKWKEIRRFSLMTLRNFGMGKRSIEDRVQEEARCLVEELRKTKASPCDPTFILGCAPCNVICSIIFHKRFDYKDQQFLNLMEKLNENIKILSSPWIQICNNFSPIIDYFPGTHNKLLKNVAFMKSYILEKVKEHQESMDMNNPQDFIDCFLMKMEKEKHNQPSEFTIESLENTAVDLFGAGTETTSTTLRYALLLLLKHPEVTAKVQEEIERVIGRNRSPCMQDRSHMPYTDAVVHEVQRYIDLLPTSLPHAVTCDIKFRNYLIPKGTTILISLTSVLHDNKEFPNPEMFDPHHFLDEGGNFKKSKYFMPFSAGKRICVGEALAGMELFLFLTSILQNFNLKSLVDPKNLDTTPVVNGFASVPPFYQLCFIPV"}, "Cytochrome P450 2C19": {"biological_target": "Cytochrome P450 2C19 (Homo sapiens, UniProt P33261)", "sequence (P33261 whole entry)": "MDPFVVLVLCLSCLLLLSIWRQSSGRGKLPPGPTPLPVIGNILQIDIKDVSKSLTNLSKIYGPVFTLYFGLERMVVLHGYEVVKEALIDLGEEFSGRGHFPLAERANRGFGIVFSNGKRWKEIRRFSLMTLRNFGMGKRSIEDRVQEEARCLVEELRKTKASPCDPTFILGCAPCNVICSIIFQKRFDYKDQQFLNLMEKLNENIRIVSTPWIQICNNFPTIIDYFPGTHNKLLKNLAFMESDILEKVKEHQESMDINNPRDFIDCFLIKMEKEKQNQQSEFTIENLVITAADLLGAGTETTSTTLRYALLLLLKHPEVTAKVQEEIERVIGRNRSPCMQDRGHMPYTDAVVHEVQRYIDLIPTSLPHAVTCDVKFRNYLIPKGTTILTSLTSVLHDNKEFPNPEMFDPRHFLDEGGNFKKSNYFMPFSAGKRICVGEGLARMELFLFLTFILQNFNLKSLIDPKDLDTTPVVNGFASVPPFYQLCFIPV", "test": "Cytochrome panel assay with activity outcomes. Panel member name: p450-cyp2c19 Compounds with AC50 equal or less than 10 uM are considered active", "assay_type": "functional"}, "[3]": {"system": "Streptococcus sp. 'group A'", "test": "growth inhibition of control SK(-) GAS strain, dose response, counter-screen for streptokinase expression inhibitor project, luminescence, kanamycin, BacTiterGlo, confirmation (AID 1900)", "assay_type": "functional, organism-based"}, "Streptococcus": {"system": "Streptococcus", "test": "Group A Streptococcus viability loss, dose response, counter-screen for streptokinase expression inhibitor project, luminescence, BacTiterGlo (AID 1915);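 further: potency for reduction of bacterial viability or growth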", "assay_type": "functional, organism-based"}}, "note": "Activity calls are given as the source filed them.", "data": [{"smiles": "COc1cccc(N2C(C(C)=O)=NN(c3ccccc3)C2c2ccc(N3CCOCC3)cc2)c1", "note": "(centres undefined)", "values": [{"measurement": "EC50", "setting": "[1]", "result": "1.49 µM (active)"}, {"measurement": "EC50", "setting": "[2]", "result": "> 30 µM (not active)"}]}, {"smiles": "CO[C@@H]1COC(=O)[C@H]2CCCN2C(=O)[C@@H](C)COC(=O)[C@H](COCc2ccccc2)NC(=O)C/C=C\\[C@H]1C", "values": [{"measurement": "AC50", "setting": "Cytochrome P450 3A4", "result": "3.98 µM (inconclusive)"}]}, {"smiles": "COc1ccc(COC(=O)N/N=C2/C[C@@H](O)[C@@H](O)[C@@H]3[C@@H]4C(=O)N([C@@H](C)c5ccccc5)C(=O)[C@H]4CC[C@H]23)cc1", "values": [{"measurement": "AC50", "setting": "Cytochrome P450 3A4", "result": "3.98 µM (inconclusive)"}]}, {"smiles": "CCCC(C)C(=O)Nc1ncc(S(=O)(=O)c2ccc([N+](=O)[O-])cc2)s1", "note": "(centres undefined)", "values": [{"measurement": "EC50", "setting": "[1]", "result": "2.25 µM (active)"}, {"measurement": "EC50", "setting": "[2]", "result": "> 60 µM (not active)"}]}, {"smiles": "COc1ccc(-n2c(=O)c(-c3ccc(F)c(F)c3)nc3cncnc32)cc1", "values": [{"measurement": "AC50", "setting": "Cytochrome P450 1A2", "result": "2.51 µM (inconclusive)"}, {"measurement": "AC50", "setting": "Cytochrome P450 3A4", "result": "12.6 µM (inconclusive)"}]}, {"smiles": "CN(C)C(=O)CSC1c2ccccc2C(=O)N1c1ccccc1", "note": "(centres undefined)", "values": [{"measurement": "AC50", "setting": "Cytochrome P450 3A4", "result": "15.8 µM (inconclusive)"}, {"measurement": "AC50", "setting": "Cytochrome P450 2C9", "result": "35.5 µM (inconclusive)"}]}, {"smiles": "Cc1ccccc1C(=O)NC(NCc1ccco1)C(Cl)(Cl)Cl", "note": "(centres undefined)", "values": [{"measurement": "AC50", "setting": "Cytochrome P450 1A2", "result": "14.1 µM (inconclusive)"}, {"measurement": "AC50", "setting": "Cytochrome P450 3A4", "result": "25.1 µM (inconclusive)"}, {"measurement": "AC50", "setting": "Cytochrome P450 2C9", "result": "0.0398 µM (inconclusive)"}]}, {"smiles": "O=C(c1cc(COc2ccc(F)cc2Cl)on1)N(Cc1ccncc1)CC1CCCO1", "note": "(centres undefined)", "values": [{"measurement": "EC50", "setting": "[1]", "result": "0.956 µM (active)"}, {"measurement": "EC50", "setting": "[2]", "result": "> 60 µM (not active)"}]}, {"smiles": "Cc1cccc(-c2noc(-c3cc4ccccc4oc3=O)n2)c1", "values": [{"measurement": "AC50", "setting": "Cytochrome P450 2C19; read-out: AC50", "result": "0.562 µM (inconclusive)"}]}, {"smiles": "CCCC1(C(=O)OC)C=C2C(=C(C(C)C)C(=O)C2C)CN1", "note": "(centres undefined)", "values": [{"measurement": "AC50", "setting": "Cytochrome P450 3A4", "result": "12.6 µM (inconclusive)"}, {"measurement": "AC50", "setting": "Cytochrome P450 2C9", "result": "20 µM (inconclusive)"}]}, {"smiles": "CCN(CC)C(=O)c1sc2[nH]c(=S)n(-c3ccccc3)c(=O)c2c1C", "values": [{"measurement": "AC50", "setting": "Cytochrome P450 2C19", "result": "inconclusive"}, {"measurement": "AC50", "setting": "Cytochrome P450 2C9", "result": "8.91 µM (inconclusive)"}]}, {"smiles": "Cc1nnc(O)nc1NCc1ccccc1Cl", "values": [{"measurement": "AC50", "setting": "Cytochrome P450 3A4", "result": "39.8 µM (inconclusive)"}]}, {"smiles": "COc1ccc(NC(C)C(=O)N/N=C/c2c(O)ccc3ccccc23)cc1", "note": "(centres undefined)", "values": [{"measurement": "EC50", "setting": "[3]", "result": "1.95 µM (active)"}, {"measurement": "EC50", "setting": "Streptococcus", "result": "1.25 µM (active)"}]}, {"smiles": "Cc1noc(NC(=O)Nc2ccccc2F)c1C#N", "values": [{"measurement": "AC50", "setting": "Cytochrome P450 1A2", "result": "0.794 µM (inconclusive)"}]}, {"smiles": "CSC(=N)N/N=C/c1ccc([N+](=O)[O-])cc1", "values": [{"measurement": "AC50", "setting": "Cytochrome P450 2C9", "result": "10 µM (inconclusive)"}]}, {"smiles": "COc1ccc2[nH]cc(CCNc3cc(-c4ccc(C(=O)N(C)C)cc4)ncn3)c2c1", "values": [{"measurement": "AC50", "setting": "Cytochrome P450 2C19; read-out: AC50", "result": "39.8 µM (inconclusive)"}]}, {"smiles": "CCN(CC1CCCN(CCc2cccc(OC)c2)C1)C(=O)c1ccc(COC)o1", "note": "(centres undefined)", "values": [{"measurement": "EC50", "setting": "[1]", "result": "0.445 µM (active)"}, {"measurement": "EC50", "setting": "[2]", "result": "30.9 µM (active)"}]}, {"smiles": "CCN1CCN(c2nc(-c3ccccn3)nc3ccccc23)CC1", "values": [{"measurement": "AC50", "setting": "Cytochrome P450 2C19; read-out: AC50", "result": "39.8 µM (inconclusive)"}]}, {"smiles": "CCOc1c(OC(C)=O)ccc(/C=C2\\N=C(SCC)SC2=O)c1[N+](=O)[O-]", "values": [{"measurement": "AC50", "setting": "Cytochrome P450 3A4", "result": "39.8 µM (inconclusive)"}]}, {"smiles": "CC(C)CCNC(=O)C(c1cccnc1)N(Cc1ccccc1)C(=O)Cn1nnc2ccccc21", "note": "(centres undefined)", "values": [{"measurement": "EC50", "setting": "[1]", "result": "0.959 µM (active)"}, {"measurement": "EC50", "setting": "[2]", "result": "> 30 µM (not active)"}]}, {"smiles": "Clc1ccc(SCc2cc(-c3ccccc3)no2)cc1", "values": [{"measurement": "AC50", "setting": "Cytochrome P450 2C9", "result": "4.47 µM (inconclusive)"}]}, {"smiles": "CC(C)c1ccccc1[S+]([O-])c1ccccc1C(C)(C)O", "note": "(centres undefined)", "values": [{"measurement": "AC50", "setting": "Cytochrome P450 2C19; read-out: AC50", "result": "3.16 µM (inconclusive)"}, {"measurement": "AC50", "setting": "Cytochrome P450 3A4", "result": "3.98 µM (inconclusive)"}]}, {"smiles": "Oc1ccc(-c2nccc(-c3ccc(Cl)cc3Cl)n2)cc1", "values": [{"measurement": "EC50", "setting": "[1]", "result": "1.62 µM (active)"}, {"measurement": "EC50", "setting": "[2]", "result": "> 60 µM (not active)"}]}, {"smiles": "COc1cccc(C2=NOC(C(=O)NCc3ccccc3)C2)c1", "note": "(centres undefined)", "values": [{"measurement": "AC50", "setting": "Cytochrome P450 3A4", "result": "25.1 µM (inconclusive)"}]}, {"smiles": "COc1ncc2nc(-c3ccc(Cl)cc3)c(=O)n(C[C@H]3CCCO3)c2n1", "values": [{"measurement": "AC50", "setting": "Cytochrome P450 2C9", "result": "25.1 µM (inconclusive)"}]}, {"smiles": "CCN(CC)C(=O)CSc1nc(O)cc(=O)n1CC", "values": [{"measurement": "AC50", "setting": "Cytochrome P450 3A4", "result": "14.1 µM (inconclusive)"}]}, {"smiles": "CCOC(=O)c1c(NC(=O)COC(=O)c2ccccc2NC)sc(C(=O)N(C)C)c1C", "values": [{"measurement": "EC50", "setting": "[1]", "result": "0.75 µM (active)"}, {"measurement": "EC50", "setting": "[2]", "result": "> 60 µM (not active)"}]}, {"smiles": "Cc1ccc(C)c(Oc2ccc(S(=O)(=O)N3CCN(C)CC3)cn2)c1", "values": [{"measurement": "EC50", "setting": "[1]", "result": "1.14 µM (active)"}, {"measurement": "EC50", "setting": "[2]", "result": "> 60 µM (not active)"}]}, {"smiles": "O=C(OCc1ccccc1)/C(=C/c1ccc(Cl)cc1)NC(=O)c1ccccc1Cl", "values": [{"measurement": "AC50", "setting": "Cytochrome P450 2C19; read-out: AC50", "result": "0.316 µM (inconclusive)"}, {"measurement": "AC50", "setting": "Cytochrome P450 2C9", "result": "1.58 µM (inconclusive)"}]}, {"smiles": "COC(=O)C1=CN(c2cc(C)cc(C)c2)C=C(C(=O)OC)C1c1cccc(F)c1", "values": [{"measurement": "EC50", "setting": "[1]", "result": "3.09 µM (active)"}, {"measurement": "EC50", "setting": "[2]", "result": "> 60 µM (not active)"}]}, {"smiles": "Cn1c(=O)c2c(nc(N/N=C\\c3ccccc3C(=O)O)n2C)n(C)c1=O", "values": [{"measurement": "AC50", "setting": "Cytochrome P450 2C19", "result": "inconclusive"}]}]}
